In patent publication US20090170851A1, “Chroman Compounds” (priority 2005, published 2009):

melting point [°C] | SMILES
160 to 165 | CCC(=O)N1CCN(c2ccc(NC(=O)C3CCc4cc(F)cc(N5CCN(C)CC5)c4O3)cc2)CC1 (stereo not drawn) [Example 32, 6-fluoro-8-(4-methylpiperazin-1-yl)-N-(4-(4-proprionyl-piperazin-1-yl)phenyl)chroman-2-carboxamide]
180 to 190 | COc1cc2c(c(N3CCN(C)CC3)c1)OC(C(=O)Nc1ccc(N3CCN(C)CC3)cc1)CC2 (stereo not drawn) [Example 35, 6-methoxy-8-(4-methylpiperazin-1-yl)-N-(4-(4-methylpiperazin-1-yl)phenyl)chroman-2-carboxamide]
150 to 160 | CN1CCN(c2ccc(NC(=O)C3CCc4cc(F)cc(N5CCN(C)CC5)c4O3)cc2)CC1 (stereo not drawn) [Example 41, 6-fluoro-8-(4-methylpiperazin-1-yl)-N-(4-(4-methylpiperazin-1-yl)phenyl)chroman-2-carboxamide]
